Experimental data: US8030335B2, “Use of liver X receptor agonists” (Laboratoires Fournier S.A., priority 2005, dated 2011)

What was measured:
Format in all cases: in vivo, rat
PDX1 mRNA = experiment: Real-time quantitative RT-PCR of PDX1 in isolated islets of treated ZDF rats; settings: normalized to 18S rRNA, vehicle ZDF 0.17, fa+ 0.38±0.21
Description: Pancreatic and duodenal homeobox gene 1, Pdx1 (Genbank: NM_022852) and facilitated glucose transporter, member 2, Glut2 (Genbank: NM_012879) gene expression were measured by real time quantitative RT-PCR. Total RNAs from fresh isolated rat pancreatic islets were prepared using Rneasy 96 Kit according to the manufacturer's protocol (Qiagen, France), treated with Dnase I to remove contaminating DNA (Stratagene, France), and quantified using the iScript cDNA Synthesis and iQ SYBR Green Supermix kits (Biorad, france). Real-time quantitative RT-PCR was performed using the iCycler Detection System instrument and software (Bio-Rad). As the predicted size of the amplified cDNAs and the Tm values for the primers were similar, uniform amplification conditions were applied (ie. annealing at 60° C.). Specificity of amplified products was monitored by performing melting curves at the end of each amplification. Expression levels were quantified (total RNA units) by generating a six-point serial standard curve. RNA samples were normalized for comparison by determining 18S rRNA levels. In this example, the mRNA expression of PDX1 and Glut2 was determined. As previously described, PDX1 and Glut2 are markers of the regeneration of beta cells. […] PDX1 and Glut2 mRNA expression was increased in islets isolated from GW3965-compared to vehicle-treated ZDF rats. […]

pancreatic islets = experiment: Number of harvested pancreatic islets in treated ZDF rats; settings: 10 mg/kg oral for 3 weeks, vehicle 51±13, fa+ 120±28, mean±SEM
Description: Male ZDF fa/fa and ZDF fa+ rats were obtained from Genetic Models (Indianapolis, Ind.), at the age of 6 weeks and used in the experiments at 12 weeks of age, after 3 weeks of oral treatment with vehicle or GW3965 (10 mg/kg). Compounds were given once daily (at 17 h) via oral gavage. At the time of their use, the ZDF fa/fa rats weighed 310-350 g, whereas the age-matched ZDF fa+ rats weighed 245-285 g. ZDF fa+ and ZDF fa/fa animals had free access to diabetogenic chow (Purina 5008). Animals were housed 5 per cage in a temperature and humidity-controlled room with a 12/12-h light-dark cycle. Blood samples were taken 16 h after compound administration via the tail vein and measured on a Konelab 300 (Labsystem) clinical chemistry analyzer. Rat pancreatic islets were prepared by collagenase digestion and density gradient purification. The enzyme collagenase type XI (Sigma Chemical, St. Louis, Mo.) was used for digestion of the pancreas. After an overnight fast, animals were deeply anesthetized and killed. Then, the pancreatic duct was cannulated, and 20 ml of the digestion solution at 37° C. (collagenase 30 mg/ml dissolved in 20 ml Hanks' balanced salt solution [HBSS]) (Sigma Chemical, St. Louis, Mo.) was slowly injected to distend the tissue. […]

[1] = system: isolated pancreatic islets; experiment: Apoptosis by measurement of DNA fragments (Cell Death Detection ELISA) in isolated islets; settings: islets of ZDF rats, 10 mg/kg oral, overnight culture in RPMI; vehicle 43.1±9.2%, fa+ 19.9±6.2%
Description: Rat pancreatic islets were prepared by collagenase digestion and density gradient purification. The enzyme collagenase type XI (Sigma Chemical, St. Louis, Mo.) was used for digestion of the pancreas. After an overnight fast, animals were deeply anesthetized and killed. Then, the pancreatic duct was cannulated, and 20 ml of the digestion solution at 37° C. (collagenase 30 mg/ml dissolved in 20 ml Hanks' balanced salt solution [HBSS]) (Sigma Chemical, St. Louis, Mo.) was slowly injected to distend the tissue. After distension, the pancreas was placed into a 20-ml glass beaker containing 5 ml of the digestion solution at 37° C. that was set into a shaking water bath at 37° C. for 8 minutes. After centrifugation at 633 g for 1 min at 4° C., the supernatant was removed and the islets were washed three times with HBSS by centrifugation at 633 g for 1 min at 4° C. For the purification procedure, the islets were resuspended in 4 ml of 80% Histopaque 1.077 (Sigma) and 4 ml HBSS. […] The apoptosis of islet cells was assessed by the Cell Death Detection enzyme-linked immunosorbent assay (ELISA) plus Kit from Roche, according to the procedures recommended by the manufacturer and applied to rat islet experiment. […] At the end of the 5-min incubation, absorbance of samples was read spectrophotometrically at 405 nm. The results were expressed as a percent of internal standard (nucleosomal particles). […]

For `O=C(O)Cc1cccc(OCCCN(Cc2cccc(C(F)(F)F)c2Cl)CC(c2ccccc2)c2ccccc2)c1` [GW3965], the “PDX1 mRNA expression” value (PDX1 mRNA) was 0.35±0.11, the “number of harvested pancreatic islets” value (pancreatic islets) was 80±16 islets/rat and the “apoptosis, DNA fragments as percent of internal standard” value [1] was 34.0±7.5%.
